Assay results: patent US20030143729A1 (Synaptic Pharmaceutical Corporation, priority 1992, published 2003)
Read-outs that look alike come from different tables or passages of the source.

Legend:
rat brain aggregates = test: [3H]GABA uptake by brain aggregates; assay type: cell-based
Protocol: Briefly, adult rat brains were removed from the skull and the cerebral cortex was dissected and placed in ice-cold HBS. […] The preparation was washed once by centrifugation, then resuspended in HBS.
The filters were washed with ice-cold HBS, punched into vials, and radioactivity determined by scintillation counting. Protein was determined in an aliquot of the aggregate preparation using the BIO-RAD protein assay kit.

neuronal cultures = test: [3H]GABA uptake in primary neuronal cell cultures; assay type: cell-based, rat
Protocol: Brains were removed aseptically from E17 embryonic Sprague-Dawley rats brains, carefully dissected free of meninges, and kept on ice. A single-cell suspension was made by mincing the brains, followed by trituration through a serological pipette. […] On day three cytosine β-D-arabinofuransoside (3 μM) was added to control the proliferation of non-neuronal cells. The cultures were used for transport assay approximately one week after plating.

TAUT = biological target: T1, TAUT (Rattus norvegicus, UniProt P31643); test: [3H]taurine uptake, full competition curves at cloned TAUT (transient transfection, COS cells); assay type: cell-based
T1 sequence (P31643 1-621): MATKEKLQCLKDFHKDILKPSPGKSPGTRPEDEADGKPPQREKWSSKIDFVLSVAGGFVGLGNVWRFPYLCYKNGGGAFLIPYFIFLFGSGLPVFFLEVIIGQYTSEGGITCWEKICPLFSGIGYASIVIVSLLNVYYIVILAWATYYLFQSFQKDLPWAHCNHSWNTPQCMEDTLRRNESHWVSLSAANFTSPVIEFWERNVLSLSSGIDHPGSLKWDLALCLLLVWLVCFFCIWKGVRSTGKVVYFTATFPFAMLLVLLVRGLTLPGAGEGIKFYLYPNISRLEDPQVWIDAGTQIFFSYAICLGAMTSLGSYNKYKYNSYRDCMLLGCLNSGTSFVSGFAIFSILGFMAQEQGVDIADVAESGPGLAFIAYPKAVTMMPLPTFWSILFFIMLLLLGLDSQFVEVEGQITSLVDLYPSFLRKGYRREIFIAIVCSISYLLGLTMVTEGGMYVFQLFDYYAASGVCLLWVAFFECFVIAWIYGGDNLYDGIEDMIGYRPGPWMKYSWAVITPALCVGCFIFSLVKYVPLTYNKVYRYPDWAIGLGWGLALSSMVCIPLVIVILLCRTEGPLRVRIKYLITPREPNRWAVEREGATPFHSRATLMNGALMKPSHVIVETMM

O-2A/Type 2 astrocytes = test: [3H]GABA uptake in O-2A/Type 2 astrocyte cultures; assay type: cell-based, rat
Protocol: (§1) Preparation of primary rat astrocyte cell cultures: Primary glial cultures were established from newborn Sprague-Dawley rat brains. Brains minus cerebella were removed aseptically and carefully dissected free of meninges. […] The cells were dissociated by trituration through a serological pipette. Separate procedures were then used for the preparation of Type-1 and O-2A/Type-2 astrocyte cultures, as will now be described.
(§2) For the preparation of Type-1 astrocyte cultures, cells were plated onto uncoated 75 cm^2 flasks at low density (1 brain per 10 flasks, or approximately 8×10^4 cells/cm^2). The medium was changed the following day and twice a week thereafter. […] Cultures highly enriched in O-2A/Type-2 cells were prepared from mixed astrocyte cultures which consisted of a monolayer of Type 1 cells upon which rested large numbers of O-2A/Type 2 cells. […] The same brain cell suspensions as described above were plated at high density (1 brain per 75 cm^2 flask, or approximately 8×10^5 cells/cm^2) into flasks coated with poly-D-lysine (10 μg/ml). After 24 hours the medium was replaced and the cultures were subsequently fed twice a week. […] Complete medium was added to the flasks and the cell suspension was removed gently, care being taken to not disrupt the underlying Type 1 astrocyte monolayer. The cells were pelleted at low speed, resuspended in complete medium, and added to 24-well plates coated with poly-D-lysine (10 μg/ml). […] No attempt was made to distinguish or separate O-2A precursors from the more differentiated Type 2 astrocytes.

rat GAT-1 = rat GAT-1 (Rattus norvegicus, UniProt P23978); test: cell-based
Protocol: Cells grown in 24-well plates were washed 3× with HEPES-buffered saline (HBS, in mM: NaCl, 150; HEPES, 20; CaCl2, 1; glucose, 10; KCl, 5; MgCl2, 1; pH 7.4) and allowed to equilibrate on a 37° C. slide warmer. After 10 minutes the medium was removed and unlabeled drugs in HBS were added (450 μl/well). […] Plates were incubated at 37° C. for 10 minutes, then washed rapidly 3× with ice-cold HBS, using a 24-position plate washer (Brandel, Gaithersburg, Mass.; model PW-12). Cells were solubilized with 0.05% sodium deoxycholate/0.1N NaOH (0.25 ml/well), an aliquot neutralized with 1N HCl, and radioactivity was determined by scintillation counting. Protein was quantified in an aliquot of the solubilized cells using a BIO-RAD protein assay kit, according to the manufacturer's directions.
Lipophilic inhibitors were dissolved in DMSO.
Data Analysis: Competition curves were conducted in duplicate, using 10 concentrations of unlabeled drug.
COS cells grown in 75 cm^2 or 150 cm^2 flasks in DMEM with 10% bovine calf serum, 100 U/ml penicillin G, and 100 μg/ml streptomycin sulfate (37° C., 5% CO2) were transfected using DEAE-dextran. On the day following transfection the cells were split into 24-well assay plates coated with poly-D-lysine (10 μg/ml), and transport was measured 24 hours later.
After 10 minutes the medium was removed and unlabeled drugs in HBS were added (450 μl/well). […] Plates were incubated at 37° C. for 10 minutes, then washed rapidly 3× with ice-cold HBS, using a 24-position plate washer (Brandel, Gaithersburg, Mass.; model PW-12). Cells were solubilized with 0.05% sodium deoxycholate/0.1N NaOH (0.25 ml/well), an aliquot neutralized with 1N HCl, and radioactivity was determined by scintillation counting. Protein was quantified in an aliquot of the solubilized cells using a BIO-RAD protein assay kit, according to the manufacturer's directions.

Type 1 astrocytes = test: [3H]GABA uptake in Type 1 astrocyte cultures; assay type: cell-based, rat; details: read-out: IC50 for inhibition of [3H]GABA uptake, Type 1 astrocytes
Protocol: as §1, §2

GAT-2 = biological target: T2, GAT-2 (Rattus norvegicus, UniProt P31646); test: [3H]GABA uptake by COS cells transfected with GAT-2 (rB14b); assay type: cell-based
T2 construct: randomly primed GAT-2 full-length or GAT-3 truncated or full-length cDNA clones; expressed in transfected cells; host or cells: COS cells, transient, plasmid pEVJB-rB14b
T2 sequence (P31646 1-602): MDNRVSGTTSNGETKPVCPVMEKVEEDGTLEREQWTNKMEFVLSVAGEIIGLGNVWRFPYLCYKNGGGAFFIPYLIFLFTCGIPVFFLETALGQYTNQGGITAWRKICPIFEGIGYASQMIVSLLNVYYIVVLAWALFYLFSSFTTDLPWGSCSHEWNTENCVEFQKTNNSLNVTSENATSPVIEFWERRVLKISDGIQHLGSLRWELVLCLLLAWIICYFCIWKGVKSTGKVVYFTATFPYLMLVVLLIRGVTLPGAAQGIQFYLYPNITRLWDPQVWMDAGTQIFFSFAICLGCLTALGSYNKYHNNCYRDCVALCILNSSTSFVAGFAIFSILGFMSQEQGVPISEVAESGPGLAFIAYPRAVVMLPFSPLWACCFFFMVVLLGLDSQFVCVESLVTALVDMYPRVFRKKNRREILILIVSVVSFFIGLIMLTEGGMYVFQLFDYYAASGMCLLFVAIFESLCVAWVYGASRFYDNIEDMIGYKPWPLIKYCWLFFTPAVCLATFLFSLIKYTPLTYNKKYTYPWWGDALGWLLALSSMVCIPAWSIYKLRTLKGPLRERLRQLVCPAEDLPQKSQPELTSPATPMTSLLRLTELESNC

[1] = Rattus norvegicus, read-out: IC50 for inhibition of [3H]GABA uptake, rat brain aggregates, control
[2] = Rattus norvegicus, Neuron, read-out: IC50 for inhibition of [3H]GABA uptake, Neurons with NNC-711, in the presence of 10 μM NNC-711
[3] = Rattus norvegicus, Neuron, read-out: IC50 for inhibition of [3H]GABA uptake, Neurons, absence of NNC-711
[4] = read-out: IC50 for inhibition of [3H]GABA uptake, Neurons, absence of NNC-711
[5] = Rattus norvegicus, Astrocyte, 3 h, read-out: IC50 for inhibition of [3H]GABA uptake, O-2A/Type 2 astrocytes with NNC-711, in the presence of 10 μM NNC-711
[6] = Rattus norvegicus, Astrocyte, 3 h, read-out: IC50 for inhibition of [3H]GABA uptake, O-2A/Type 2 astrocytes, absence of NNC-711
[7] = Rattus norvegicus, Astrocyte, 3 h
[8] = COS, read-out: % Inhibition of [3H]GABA uptake, GAT-2
[9] = full competition curves, 50 nM [3H]taurine, read-out: IC50 for inhibition of [3H]taurine uptake, TAUT (Table 8)
[10] = read-out: IC50 for inhibition of [3H]GABA uptake, rat brain aggregates, control, absence of NNC-711
[11] = read-out: IC50 for inhibition of [3H]GABA uptake, rat brain aggregates, with NNC-711, in the presence of 10 μM NNC-711
[12] = read-out: IC50 for inhibition of [3H]GABA uptake, Neurons with NNC-711, in the presence of 10 μM NNC-711
[13] = read-out: IC50 for inhibition of [3H]GABA uptake, O-2A/Type 2 astrocytes with NNC-711, in the presence of 10 μM NNC-711
[14] = read-out: IC50 for inhibition of [3H]GABA uptake, O-2A/Type 2 astrocytes, absence of NNC-711

N[C@@H]1CCC[C@H](C(=O)O)C1 (relative stereo) [ACHC, cis-3-aminocyclohexanecarboxylic acid]
IC50 (rat brain aggregates; [1]): 31 µM
IC50 (neuronal cultures; [2]): 1950 µM
IC50 (neuronal cultures; [3]): ~75 µM
IC50 (neuronal cultures; Rattus norvegicus, read-out: IC50, NNC-711-resistant GABA transport, neuronal cultures, in the presence of 10 μM NNC-711): ~2000 µM
IC50 (neuronal cultures; [4]): 77 ± 8 µM
IC50 (TAUT): 9230 µM
IC50 (O-2A/Type 2 astrocytes; [5]): 2360 µM
IC50 (O-2A/Type 2 astrocytes; [6]): ~35 µM
IC50 (O-2A/Type 2 astrocytes; Rattus norvegicus, Astrocyte, read-out: IC50 for GABA transport, O-2A/Type 2 astrocytes, in the presence of 10 μM NNC-711): ~2000 µM
IC50 (rat GAT-1): 132 ± 44 µM
IC50 (Type 1 astrocytes; [7]): 400 ± 200 µM
inhibition at 100 µM (GAT-2; [8]): 3 ± 3%

NCCCC(=O)O [GABA, gamma-aminobutyric acid]
IC50 (TAUT; [9]): 720 ± 170 µM
VMAX of GABA transport, COS/rB14b (GAT-2) (GAT-2; various concentrations of [3H]GABA, 30 seconds): 2.5±1.2 nmoles/mg protein

N=C(N)NCCS(=O)(=O)O [GES, guanidinoethanesulfonic acid]
IC50 (rat brain aggregates; [10]): 1340 µM
IC50 (rat brain aggregates; [11]): 410 ± 100 µM
IC50 (neuronal cultures; [12]): 508 ± 60 µM
IC50 (neuronal cultures; [4]): 2110 µM
IC50 (TAUT; [9]): 129 µM
IC50 (O-2A/Type 2 astrocytes; [13]): 603 ± 300 µM
IC50 (O-2A/Type 2 astrocytes; [14]): 1560 µM
IC50 (Type 1 astrocytes): 310 ± 60 µM

NCC[C@H](N)C(=O)O [L-DABA, L-(2,4)diaminobutyric acid]
IC50 (rat brain aggregates; [1]): 22 ± 3 µM
IC50 (neuronal cultures; [2]): 861 ± 225 µM
IC50 (neuronal cultures; [3]): 165 ± 20 µM
IC50 (TAUT): 41800 µM
IC50 (O-2A/Type 2 astrocytes; [5]): 91 ± 30 µM
IC50 (O-2A/Type 2 astrocytes; [6]): 74 µM
IC50 (rat GAT-1): 128 ± 12 µM
IC50 (Type 1 astrocytes; [7]): 3460 µM
inhibition at 100 µM (GAT-2; [8]): 43 ± 8%

O=C(O)C1=CCCN(CCON=C(c2ccccc2)c2ccccc2)C1 [NNC-711]
[3H]GABA uptake that persists, rat brain aggregates (rat brain aggregates; NNC-711 at 10 μM): 15±2%
IC50 (rat brain aggregates; read-out: IC50 for GABA uptake, rat brain aggregates): 0.09 µM
IC50 (rat brain aggregates; [11]): 323 ± 70 µM
specific [3H]GABA uptake that persisted, neuronal cultures (neuronal cultures; NNC-711 at 10 μM): 31±1%
IC50 (neuronal cultures; read-out: IC50 for [3H]GABA uptake, neuronal cultures): ~0.3 µM
IC50 (neuronal cultures; [4]): 0.28 ± 0.1 µM
IC50 (TAUT; [9]): 207 µM
specific [3H]GABA uptake that persisted, O-2A/Type 2 astrocytes (O-2A/Type 2 astrocytes; NNC-711 at 10 μM): 26±4%
IC50 (O-2A/Type 2 astrocytes; [14]): 0.07 µM
IC50 (Type 1 astrocytes): 2 ± 0.3 µM

O=C(O)C1=CCCNC1 [guvacine]
IC50 (rat brain aggregates; [1]): 10 ± 2 µM
IC50 (neuronal cultures; Rattus norvegicus, Neuron, read-out: IC50 for inhibition of [3H]GABA uptake, Neurons): 14 ± 2 µM
IC50 (TAUT; [9]): 1030 µM
IC50 (O-2A/Type 2 astrocytes; Rattus norvegicus, Astrocyte, 3 h, read-out: IC50 for inhibition of [3H]GABA uptake, O-2A/Type 2 astrocytes): 8 ± 0.9 µM
IC50 (rat GAT-1): 39 ± 6 µM
IC50 (Type 1 astrocytes; [7]): 23 ± 10 µM
inhibition at 10 µM (GAT-2; [8]): 13 ± 1%

NCCS(=O)O [hypotaurine]
IC50 (rat brain aggregates; [1]): 692 ± 100 µM
IC50 (neuronal cultures; [2]): 25 ± 2 µM
IC50 (neuronal cultures; [3]): 742 ± 200 µM
IC50 (TAUT; [9]): 47 µM
IC50 (O-2A/Type 2 astrocytes; [5]): 29 ± 15 µM
IC50 (O-2A/Type 2 astrocytes; [6]): 620 µM
IC50 (rat GAT-1): 1010 µM
IC50 (Type 1 astrocytes; [7]): 69 ± 30 µM

NCCS(=O)(=O)O [taurine, 2-aminoethanesulfonic acid]
IC50 (rat brain aggregates; [1]): 67000 µM
IC50 (TAUT; [9]): 48 ± 11 µM
IC50 (O-2A/Type 2 astrocytes; [6]): 13000 µM
IC50 (rat GAT-1): 32300 µM

NCCC(=O)O [β-alanine]
IC50 (rat brain aggregates; Rattus norvegicus, read-out: IC50 for GABA transport, brain aggregates): 3000 µM
IC50 (rat brain aggregates; Rattus norvegicus, read-out: IC50 for inhibition of [3H]GABA uptake, rat brain aggregates, control, absence of NNC-711): 2930 µM
IC50 (rat brain aggregates; Rattus norvegicus, read-out: IC50 for inhibition of [3H]GABA uptake, rat brain aggregates, with NNC-711, in the presence of 10 μM NNC-711): 33 µM
IC50 (neuronal cultures; [2]): ~50 µM
IC50 (neuronal cultures; [3]): 4060 µM
IC50 (neuronal cultures; Rattus norvegicus, read-out: IC50 for [3H]GABA uptake, neuronal cultures, absence of NNC-711): ~4000 µM
IC50 (neuronal cultures; [12]): 48 ± 10 µM
IC50 (TAUT; [9]): 176 µM
IC50 (O-2A/Type 2 astrocytes; [5]): ~25 µM
IC50 (O-2A/Type 2 astrocytes; [6]): 2030 µM
IC50 (O-2A/Type 2 astrocytes; Rattus norvegicus, Astrocyte, read-out: IC50 for GABA transport, O-2A/Type 2 astrocytes): ~2000 µM
IC50 (O-2A/Type 2 astrocytes; [13]): 24 ± 8 µM
IC50 (rat GAT-1): 2920 ± 197 µM
IC50 (Type 1 astrocytes; [7]): 100 ± 30 µM
inhibition at 100 µM (GAT-2; [8]): 86 ± 1%

hydroxynipecotic acid [OH-nipecotic]
IC50 (rat brain aggregates; [10]): 10 ± 1 µM
IC50 (rat brain aggregates; [11]): 69 ± 10 µM
IC50 (neuronal cultures; [12]): 304 ± 100 µM
IC50 (neuronal cultures; [4]): 22 ± 2 µM
IC50 (TAUT; [9]): 4810 µM
IC50 (O-2A/Type 2 astrocytes; [13]): 197 ± 20 µM
IC50 (O-2A/Type 2 astrocytes; [14]): 17 ± 3 µM
IC50 (Type 1 astrocytes): 1610 µM
% Inhibition of [3H]GABA uptake, GAT-2 (GAT-2; inhibitor 10 μM, 50 nM [3H]GABA, 10 minutes, 37° C.): 9 ± 7 (3) %
